According to patent US11008355B2, “Crystal of 3'-sialyllactose sodium salt n-hydrate, and process for producing same” (KYOWA HAKKO BIO CO., LTD., priority 2016, dated 2021):
Like-named read-outs stand apart in the source and are kept apart here.

How the values were obtained:
[1] = pH of aqueous solution of the crystal; assay type: physicochemical; details: aqueous solution at 50 g/L as a crystal of 3SL sodium salt 8.0-hydrate
Procedure: As for the pH, an aqueous solution at 50 g/L as a crystal of 3SL sodium salt 8.0-hydrate was measured. The melting point was measured using Melting Point M-565 (manufactured by BUCHI Corporation) under a condition of 50° C. to 200° C. and 0.5° C./min according to the instruction book.

[2] = 30° C., relative humidity of 80%; for Change in weight with lapse of time (in words): up to 8 hours
Procedure: Storage conditions: 30° C., relative humidity of 80% (apparatus: THE051FA, manufactured by Advantec Toyo Kaisha Ltd.)
Measurement method: After about 100 mg of a sample was weighed with a precision balance, the sample was packed in a glass container and stored under the above-mentioned conditions. Thereafter, the sample was weighed again, and the weight change ratio was calculated.
Incidentally, the weight of the sample at each elapsed time was measured by assuming the weight of each sample at the start of the test to be 100%.

[3] = 50° C., relative humidity of 50%, HPLC, wt %
Procedure: Storage conditions: 50° C., relative humidity of 50% (adjusted with saturated sodium bromide solution)
Measurement method: About 5 g of a sample was weighed with a precision balance, the sample was packed in a glass container, and the amount of impurities (glucose, lactose, sialic acid) after heating was evaluated by HPLC (“%” in Table 5 represents “wt %”).

pH [1]	Change in weight with lapse of time (in words) [2]	Weight of sample (weight at start of test = 100%) ([2]; elapsed time 0 hours) [%]	Weight of sample (weight at start of test = 100%) ([2]; elapsed time 0.5 hours) [%]	Weight of sample (weight at start of test = 100%) ([2]; elapsed time 2.5 hours) [%]	Weight of sample (weight at start of test = 100%) ([2]; elapsed time 8 hours) [%]	Glucose (impurity amount) ([3]; elapsed days 0) [%]	Lactose (impurity amount) ([3]; elapsed days 0) [%]	Sialic acid (impurity amount) ([3]; elapsed days 0) [%]	Glucose (impurity amount) ([3]; elapsed days 2) [%]	Lactose (impurity amount) ([3]; elapsed days 2) [%]	Sialic acid (impurity amount) ([3]; elapsed days 2) [%]	Glucose (impurity amount) ([3]; elapsed days 4) [%]	Lactose (impurity amount) ([3]; elapsed days 4) [%]	Sialic acid (impurity amount) ([3]; elapsed days 4) [%]	SMILES
6.00	almost no change in weight	100.0	100.2	99.9	99.9	0.03	0.01	0.08	0.04	0.01	0.10	0.04	0.02	0.09	CC(=O)NC1C(O)CC(OC2C(O)C(CO)OC(OC3C(CO)OC(O)C(O)C3O)C2O)(C(=O)[O-])OC1C(O)C(O)CO.O.O.O.O.O.O.O.O.[Na+] (centres unmarked) [Example 2, 3SL sodium salt 8.0-hydrate]
						0.11	0.02	0.14	0.14	0.03	0.21	0.16	0.07	0.26	CC(=O)N[C@H]1[C@H]([C@H](O)[C@H](O)CO)O[C@@](O[C@H]2[C@@H](O)[C@@H](CO)O[C@@H](O[C@H]3[C@H](O)[C@@H](O)C(O)O[C@@H]3CO)[C@@H]2O)(C(=O)[O-])C[C@@H]1O.[Na+] (some centres unmarked) [Freeze-dried product, amorphous 3SL sodium, reference compound]
	increase in weight	100.0	123.1	130.5	130.4										CC(=O)N[C@H]1[C@H]([C@H](O)[C@H](O)CO)O[C@@](O[C@H]2[C@@H](O)[C@@H](CO)O[C@@H](O[C@H]3[C@H](O)[C@@H](O)C(O)O[C@@H]3CO)[C@@H]2O)(C(=O)[O-])C[C@@H]1O.[Na+] (some centres unmarked) [amorphous, 3SL sodium reagent, reference compound]
